Reference: ChEMBL document CHEMBL5252515, “Discovery of 6-Amino-2-{[(1S)-1-methylbutyl]oxy}-9-[5-(1-piperidinyl)pentyl]-7,9-dihydro-8H-purin-8-one (GSK2245035), a Highly Potent and Selective Intranasal Toll-Like Receptor 7 Agonist for the Treatment of Asthma” (J Med Chem, 2016)

Key:
[1] = Ocular toxicity in monkey at 1000 ug/ml post single dose administration after 48 hrs; set-up: species or system Macaca mulatta; settings: rhesus monkey, in vivo, dose 1000 µg/ml
[2] = Bioavailability in mouse after intranasal administration; format: ADME, organism-based; settings: in vivo, inhaled or intranasal
[3] = target: T1, Toll-like receptor 8 (Homo sapiens, UniProt Q9NR97); experiment: Agonist activity at TLR8 (unknown origin) expressed in human U2OS cells by luciferase reporter assay; format: cell-based
T1 sequence (Q9NR97 whole entry): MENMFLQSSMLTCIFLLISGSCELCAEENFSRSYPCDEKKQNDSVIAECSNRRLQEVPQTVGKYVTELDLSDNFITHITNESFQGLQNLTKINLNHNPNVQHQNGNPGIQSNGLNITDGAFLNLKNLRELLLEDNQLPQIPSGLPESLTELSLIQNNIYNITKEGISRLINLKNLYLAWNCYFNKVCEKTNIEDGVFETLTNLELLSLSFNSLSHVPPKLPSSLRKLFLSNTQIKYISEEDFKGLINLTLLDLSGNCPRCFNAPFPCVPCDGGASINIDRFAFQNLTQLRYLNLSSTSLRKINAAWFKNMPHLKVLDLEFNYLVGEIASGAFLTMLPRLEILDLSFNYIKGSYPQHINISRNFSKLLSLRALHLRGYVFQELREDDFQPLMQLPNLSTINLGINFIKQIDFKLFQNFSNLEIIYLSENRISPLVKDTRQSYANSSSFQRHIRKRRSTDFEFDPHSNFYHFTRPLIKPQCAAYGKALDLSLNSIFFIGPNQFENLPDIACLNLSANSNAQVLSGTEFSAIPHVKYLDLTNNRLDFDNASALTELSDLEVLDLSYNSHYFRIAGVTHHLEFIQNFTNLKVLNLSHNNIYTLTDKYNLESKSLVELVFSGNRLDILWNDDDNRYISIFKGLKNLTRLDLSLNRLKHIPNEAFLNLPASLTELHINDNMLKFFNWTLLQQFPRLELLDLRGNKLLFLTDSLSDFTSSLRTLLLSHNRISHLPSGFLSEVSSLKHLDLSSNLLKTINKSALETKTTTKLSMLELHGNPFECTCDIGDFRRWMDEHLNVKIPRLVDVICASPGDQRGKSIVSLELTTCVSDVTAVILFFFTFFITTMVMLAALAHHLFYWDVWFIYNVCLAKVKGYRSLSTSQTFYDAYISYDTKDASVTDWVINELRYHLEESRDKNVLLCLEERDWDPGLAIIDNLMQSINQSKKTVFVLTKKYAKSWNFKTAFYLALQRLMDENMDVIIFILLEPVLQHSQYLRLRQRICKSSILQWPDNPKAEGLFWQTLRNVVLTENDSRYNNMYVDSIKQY

[4] = target: T2, Toll-like receptor 7 (Macaca fascicularis, UniProt B3Y652); experiment: Agonist activity at TLR7 in cynomolgus monkey whole blood assessed as induction of IFNalpha production; format: tissue-based
T2 sequence (B3Y652 whole entry): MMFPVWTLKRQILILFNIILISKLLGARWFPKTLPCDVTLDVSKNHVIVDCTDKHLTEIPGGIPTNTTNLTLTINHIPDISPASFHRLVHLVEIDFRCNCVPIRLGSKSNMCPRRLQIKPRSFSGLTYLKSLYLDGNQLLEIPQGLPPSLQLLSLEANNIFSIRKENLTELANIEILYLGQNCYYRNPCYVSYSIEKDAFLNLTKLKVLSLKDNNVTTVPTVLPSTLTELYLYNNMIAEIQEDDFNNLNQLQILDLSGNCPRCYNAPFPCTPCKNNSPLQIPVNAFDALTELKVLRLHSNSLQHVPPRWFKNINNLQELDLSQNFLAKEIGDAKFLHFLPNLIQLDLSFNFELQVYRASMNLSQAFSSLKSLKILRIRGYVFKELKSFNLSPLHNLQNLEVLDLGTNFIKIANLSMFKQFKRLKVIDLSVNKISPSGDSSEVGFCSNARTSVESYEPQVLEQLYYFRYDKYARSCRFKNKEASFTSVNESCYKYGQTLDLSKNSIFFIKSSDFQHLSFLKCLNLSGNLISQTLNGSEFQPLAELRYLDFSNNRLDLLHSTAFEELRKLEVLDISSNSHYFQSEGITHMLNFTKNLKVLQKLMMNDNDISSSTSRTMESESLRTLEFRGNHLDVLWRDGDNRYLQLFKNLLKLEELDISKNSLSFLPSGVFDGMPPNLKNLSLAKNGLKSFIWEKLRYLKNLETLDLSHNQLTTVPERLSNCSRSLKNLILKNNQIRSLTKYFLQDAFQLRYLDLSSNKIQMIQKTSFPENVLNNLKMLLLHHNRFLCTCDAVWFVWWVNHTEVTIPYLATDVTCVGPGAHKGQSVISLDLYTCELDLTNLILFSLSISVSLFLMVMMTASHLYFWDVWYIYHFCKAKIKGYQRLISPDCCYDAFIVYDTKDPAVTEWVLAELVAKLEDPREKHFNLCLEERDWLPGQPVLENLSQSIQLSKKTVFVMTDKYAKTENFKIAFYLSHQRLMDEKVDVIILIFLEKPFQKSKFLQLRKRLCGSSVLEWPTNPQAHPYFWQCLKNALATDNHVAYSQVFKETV

[5] = target: T3, Toll-like receptor 7 (Macaca fascicularis) (UniProt B3Y652); experiment: In vivo target occupancy at TLR7 in cynomolgus monkey assessed as fold increase in GBP1 mRNA expression in nasal scrape at 30 ng/kg administered intranasally incubated for 24 hrs by TaqMan analysis (reference value: 2.4); format: functional
T3 sequence (whole entry): T2 sequence (B3Y652 whole entry)

CCC[C@H](C)Oc1nc(N)c2[nH]c(=O)n(CCCCCN3CCCCC3)c2n1 [GSK-2245035]
Activity [1]: Toxic
bioavailability [2]: 42%
EC50 [3]: 20 µM
EC50 [4]: 0.0794 µM
fold change (FC) [5]: 97.6
